US12012408B2, “Purine compounds and method for the treatment of cancer” (THE ROYAL INSTITUTION FOR THE ADVANCEMENT OF …, priority 2018, dated 2024)

How the values were obtained:
[1] = test system: cleaved-PARP, cleaved-caspase 3, Bcl-2 in MDA-MB-231 and BT-20 cells; assay: Western blot of indicators of apoptosis; type: cell-based; details: FIG. 6B
Description: Sub-confluent cells were washed with PBS, lysed in RIPA buffer (50 mM Tris-HCl at pH7.5, 150 mM sodium chloride, 1% tritonX-100, 0.1% SDS, 2 mM EDTA and 25 mM sodium fluoride) supplemented with 1 mM PMSF and protease inhibitor cocktail (Roche) for 10 min on ice and centrifuged (13,000 rpm at 4° C. for 20 min) to separate cell lysate. Cell lysate (50 μg protein, as measured by the Bradford protein assay) was then added with SDS sample buffer (Tris at pH 6.8, 20% glycerol, 5% SDS, bromophenol blue and β-mercaptoethanol) and boiled for 5 min. Samples were then resolved through 13% SDS-PAGE gels, transferred to nitrocellulose membrane, blotted with specific first antibodies at different dilution in cold room overnight, and then amplified with horseradish peroxidase-conjugated secondary antibodies for 1 hour in room temperature and enhanced by chemiluminescence detection system.
Considering apoptosis is the major form of cell death induced by chemotherapeutic agent, we seek to identify whether the anticancer effect of SLLN-15 was mediated via apoptosis in breast cancer cells.

[2] = test system: MDA-MB-231 and BT-20 cells; assay: MTT assay (short-term cell viability); type: cell-based; details: time-dependent, SLLN-15 compared with vorinostat; FIG. 6A
Description: The short-term effects of SLLN-15 on tumor cell growth were assessed using the 3-(4,5-dimethylthiazol-2-yl)-2,5-diphenylte-trazolium bromide (MTT; Sigma) assay. Cells were seeded at a density of 5000 cells/well in a 96-well plate and treated with SLLN-15 as indicated concentration or DMSO for 24 hours. MTT solution (5 mg/ml in RPMI 1640 medium) was added (20 μl/well), and plates were incubated for 4 hours in dark at 37° C., then the purple formazan crystals were then dissolved in 100 μl MTT solvent (4 mM HCl and 0.1% NP-40 in isopropanol). The plates were read on FLUOstar OPTIMA microplate reader (BMG Labtech, Ortenberg, Germany) at 570 nm. Assays were performed in triplicate on three independent experiments.

## O=C(CCCCCCC(=O)Nc1ccccc1)NO [vorinostat, suberoylanilide hydroxamic acid, reference compound]
[1]
  indicators of apoptosis: upregulation of cleaved-PARP and cleaved-caspase 3, downregulation of Bcl-2: only detected in vorinostat treated cells
[2]
  cell viability (MTT): markedly decreased cell viability
